Assay results as given in patent EP4745117A1, “NOVEL INDENONE DERIVATIVE AND USE THEREOF” (Amyloid Solution Inc., priority 2023, dated 2025).

How the values were obtained:
Aβ1-42 = molecular target: T1, Aβ1-42 (Homo sapiens, UniProt P05067); assay: Amyloid-beta disaggregation test by Thioflavin-T analysis; assay type: biochemical; conditions: for EC50: Aβ1-42 50 µM aggregated 24 hours, then compound 0 - 500 µM for 48 hours at 37 °C, concentration disaggregating 50 % of aggregates vs control, read-out: EC50 (µM) Aβ; for disaggregation effect for amyloid-beta protein aggregates: statement in words summarising the Thioflavin-T results
T1 construct: dissolving Aβ1-42 or Tau-RD3 (Tau repeat domain 3) monomers in DMSO
Method: (§1) Each compound was dissolved in DMSO to a concentration of 10 mM. Then, the compounds were diluted with 6 % DMSO (in DW) for use.
(§2) Amyloid-beta and tau solutions were prepared by dissolving Aβ1-42 or Tau-RD3 (Tau repeat domain 3) monomers in DMSO to a concentration of 10 mM. Then, the solutions were diluted to 100 µM with DW and stored on ice.
(§3) Meanwhile, Thioflavin-T was dissolved in 50 mM glycine buffer (pH 8.5) to a concentration of 5 mM. Then, the solution was diluted to 5 µM with 50 mM glycine buffer (pH 8.5) and stored in the dark, protected from light.
(§4) The amyloid-beta and tau solutions prepared in Example 1.1 were each placed in 1.5 mL microcentrifuge tubes to a concentration of 50 µM or 35 µM, respectively, and then reacted at 37 °C for 24 hours.
(§5) To each 1.5 mL microcentrifuge tube in which the amyloid-beta and tau aggregation was complete, the compounds were added at concentrations ranging from 500 µM down to 0 µM by serial dilution, and then further reacted at 37 °C for 48 hours.
(§6) 25 µL of each completed reaction solution was added to each well of a 96-well fluorescence analysis plate, and 75 µL of the Thioflavin-T solution was added to each well. After reacting for 5 minutes at room temperature in the dark, the fluorescence value was measured at 450 nm (excitation) and 485 nm (emission) using a multi-mode microplate reader.
(§7) The fluorescence value of the group (control group) treated with only amyloid-beta or tau and aggregated for 72 hours was designated as 100 %. The fluorescence values measured after treating the amyloid-beta and tau aggregates (formed by reacting for 24 hours) with each compound by concentration and reacting for an additional 48 hours were converted to relative values.

[1] = molecular target: Tau-RD3 (Tau repeat domain 3) (Homo sapiens, UniProt P10636); assay: Tau disaggregation test by Thioflavin-T analysis; assay type: biochemical; conditions: for EC50: Tau-RD3 35 µM aggregated 24 hours, then compound 0 - 500 µM for 48 hours at 37 °C, concentration disaggregating 50 % of aggregates vs control, read-out: EC50 (µM) Tau; for disaggregation effect for tau protein aggregates: statement in words summarising the Thioflavin-T results
Method: as §1, §2, §3, §4, §5, §6, §7

Tau-RD3 (Tau repeat domain 3), sequence (P10636 623-653 limits assumed): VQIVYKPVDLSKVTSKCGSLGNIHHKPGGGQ
T1 sequence (P05067 672-713 limits assumed): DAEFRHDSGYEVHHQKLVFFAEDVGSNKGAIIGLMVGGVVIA

Row | EC50 (Aβ1-42) [µM] | EC50 [1] [µM] | Structure (SMILES) | disaggregation effect for amyloid-beta protein aggregates (Aβ1-42) | disaggregation effect for tau protein aggregates [1]
1 | > 250 | > 250 | Cc1ncsc1C1=C(c2cccnc2)C(=O)c2cc(NCC3CCOCC3)ccc21 [Compound 52, 3-(4-methylthiazol-5-yl)-2-(pyridin-3-yl)-6-(((tetrahydro-2H-pyran-4-yl)methyl)amino)-1H-inden-1-one] | – | –
2 | > 250 | > 250 | Cc1ncsc1C1=C(c2cccnc2)C(=O)c2cc(NCCO)ccc21 [Compound 53, 6-((2-hydroxyethyl)amino)-3-(4-methylthiazol-5-yl)-2-(pyridin-3-yl)-1H-inden-1-one] | – | –
3 | > 250 | > 250 | COCCNc1ccc2c(c1)C(=O)C(c1cccnc1)=C2c1scnc1C [Compound 54, 6-((2-methoxyethyl)amino)-3-(4-methylthiazol-5-yl)-2-(pyridin-3-yl)-1H-inden-1-one] | – | –
4 | < 20 | > 250 | Cc1ncsc1C1=C(c2cccnc2)C(=O)c2cc(NCCOc3ccccc3)ccc21 [Compound 55, 3-(4-methylthiazol-5-yl)-6-((2-phenoxyethyl)amino)-2-(pyridin-3-yl)-1H-inden-1-one] | – | –
5 | 20 to 100 | 20 to 100 | Cc1ncsc1C1=C(c2cccnc2)C(=O)c2cc(NC3CCOCC3)ccc21 [Compound 56, 3-(4-methylthiazol-5-yl)-2-(pyridin-3-yl)-6-((tetrahydro-2H-pyran-4-yl)amino)-1H-inden-1-one] | – | –
6 | < 20 | < 20 | Cc1ncsc1C1=C(c2cccnc2)C(=O)c2cc(SCCCc3ccccc3)ccc21 [Compound 57, 3-(4-methylthiazol-5-yl)-6-((3-phenylpropyl)thio)-2-(pyridin-3-yl)-1H-inden-1-one] | remarkably excellent disaggregation effect | remarkably excellent disaggregation effect
7 | < 20 | > 250 | Cc1ncsc1C1=C(c2cccnc2)C(=O)c2cc(NC3CCCN(c4ccccc4)C3)ccc21 (stereo not drawn) [Compound 58, 3-(4-methylthiazol-5-yl)-6-((1-phenylpiperidin-3-yl)amino)-2-(pyridin-3-yl)-1H-inden-1-one] | – | –
8 | 20 to 100 | 20 to 100 | Cc1ncsc1C1=C(c2cccnc2)C(=O)c2cc(N)ccc21 [Compound 59, 6-amino-3-(4-methylthiazol-5-yl)-2-(pyridin-3-yl)-1H-inden-1-one] | – | –
9 | 20 to 100 | < 20 | Cc1ncsc1C1=C(c2cccnc2)C(=O)c2cc(NC(=O)CCc3ccccc3)ccc21 [Compound 60, N-(3-(4-methylthiazol-5-yl)-1-oxo-2-(pyridin-3-yl)-1H-inden-6-yl)-3-phenylpropanamide] | – | –
10 | > 250 | > 250 | Cc1ncsc1C1=C(c2cccnc2)C(=O)c2cc(NC(=O)C3CCOCC3)ccc21 [Compound 61, N-(3-(4-methylthiazol-5-yl)-1-oxo-2-(pyridin-3-yl)-1H-inden-6-yl)tetrahydro-2H-pyran-4-carboxamide] | – | –
11 | > 250 | > 250 | Cc1ncsc1C1=C(c2cccnc2)C(=O)c2cc(N(C)C)ccc21 [Compound 62, 6-(dimethylamino)-3-(4-methylthiazol-5-yl)-2-(pyridin-3-yl)-1H-inden-1-one] | – | –
12 | 20 to 100 | 100 to 250 | Cc1ncsc1C1=C(c2cccnc2)C(=O)c2cc(N3CCN(C)CC3)ccc21 [Compound 64, 6-(4-methylpiperazin-1-yl)-3-(4-methylthiazol-5-yl)-2-(pyridin-3-yl)-1H-inden-1-one] | – | –
13 | < 20 | < 20 | Cc1ncsc1C1=C(c2cccnc2)C(=O)c2cc(Oc3ccccc3)ccc21 [Compound 66, 3-(4-methylthiazol-5-yl)-6-phenoxy-2-(pyridin-3-yl)-1H-inden-1-one] | remarkably excellent disaggregation effect | remarkably excellent disaggregation effect
14 | > 250 | > 250 | CNc1ccc2c(c1)C(=O)C(c1ccccc1)=C2c1ccccc1 [Compound 67, 6-(methylamino)-2,3-diphenyl-1H-inden-1-one] | – | –
15 | > 250 | > 250 | Nc1ccc2c(c1)C(=O)C(c1ccccc1)=C2c1ccccc1 [Compound 68, 6-amino-2,3-diphenyl-1H-inden-1-one] | – | –
16 | < 20 | > 250 | CN(C)c1ccc2c(c1)C(=O)C(c1ccccc1)=C2c1ccccc1 [Compound 69, 6-(dimethylamino)-2,3-diphenyl-1H-inden-1-one] | – | –

Row | EC50 (Aβ1-42) [µM] | EC50 [1] [µM] | Structure (SMILES) | disaggregation effect for amyloid-beta protein aggregates (Aβ1-42) | disaggregation effect for tau protein aggregates [1]
17 | 20 to 100 | 100 to 250 | Cc1cc(N2CCN(C)CC2)cc2c1C(c1ccccc1)=C(c1ccccc1)C2=O [Compound 71, 4-methyl-6-(4-methylpiperazin-1-yl)-2,3-diphenyl-1H-inden-1-one] | – | –
18 | < 20 | > 250 | Cc1cccc(C)c1C1=C(c2ccccc2)C(=O)c2cc(Cl)ccc21 [Compound 72-7, 6-chloro-3-(2,6-dimethylphenyl)-2-phenyl-1H-inden-1-one] | – | –
19 | 100 to 250 | 100 to 250 | CN1CCN(c2ccc3c(c2)C(=O)C(c2cccc(N4CCOCC4)c2)=C3c2ccccc2)CC1 [Compound 73, 6-(4-methylpiperazin-1-yl)-2-(3-morpholinophenyl)-3-phenyl-1H-inden-1-one] | – | –
20 | < 20 | > 250 | O=C1C(c2cccc(N3CCOCC3)c2)=C(c2ccccc2)c2ccc(Cl)cc21 [Compound 73-7, 6-chloro-2-(3-morpholinophenyl)-3-phenyl-1H-inden-1-one] | – | –
21 | < 20 | < 20 | Cc1ncsc1C1=C(c2ccc(N3CCN(C)CC3)cc2)C(=O)c2cc(OCCCc3ccccc3)ccc21 [Compound 76, 2-(4-(4-methylpiperazin-1-yl)phenyl)-3-(4-methylthiazol-5-yl)-6-(3-phenylpropoxy)-1H-inden-1-one] | – | –
22 | < 20 | < 20 | Cc1ncsc1C1=C(c2scnc2C)c2ccc(OCCCc3ccccc3)cc2C1=O [Compound 77, 2,3-bis(4-methylthiazol-5-yl)-6-(3-phenylpropoxy)-1H-inden-1-one] | – | –
23 | 100 to 250 | > 250 | O=C1C(c2ccccc2)=C(c2ccccc2)c2ccc(OCCCc3ccccc3)cc21 [Compound 78, 2,3-diphenyl-6-(3-phenylpropoxy)-1H-inden-1-one] | – | –
24 | 20 to 100 | 20 to 100 | Cc1ncsc1C1=C(c2scnc2C)c2ccc(N3CCN(C)CC3)cc2C1=O [Compound 79, 6-(4-methylpiperazin-1-yl)-2,3-bis(4-methylthiazol-5-yl)-1H-inden-1-one] | – | –
25 | 20 to 100 | 100 to 250 | CN1CCN(c2ccc3c(c2)C(=O)C(c2cccc(N4CCOCC4)c2)=C3c2cccc(N3CCOCC3)c2)CC1 [Compound 80, 6-(4-methylpiperazin-1-yl)-2,3-bis(3-morpholinophenyl)-1H-inden-1-one] | – | –
26 | 20 to 100 | 20 to 100 | Cc1ncsc1C1=C(c2scnc2C)c2ccc(N3CCN(CCO)CC3)cc2C1=O [Compound 81, 6-(4-(2-hydroxyethyl)piperazin-1-yl)-2,3-bis(4-methylthiazol-5-yl)-1H-inden-1-one] | – | –
27 | < 20 | 20 to 100 | Cc1ccccc1C1=C(c2ccccc2C)c2ccc(O)cc2C1=O [Compound 82, 6-hydroxy-2,3-di-o-tolyl-1H-inden-1-one] | – | –
28 | < 20 | < 20 | O=C1C(c2cncs2)=C(c2cncs2)c2ccc(OCCCc3ccccc3)cc21 [Compound 83, 6-(3-phenylpropoxy)-2,3-di(thiazol-5-yl)-1H-inden-1-one] | remarkably excellent disaggregation effect | remarkably excellent disaggregation effect
29 | 20 to 100 | 20 to 100 | COc1ccc2c(c1)C(=O)C(c1cncs1)=C2c1cncs1 [Compound 83-5, 6-methoxy-2,3-di(thiazol-5-yl)-1H-inden-1-one] | – | –
30 | > 250 | 100 to 250 | O=C1C(c2cncs2)=C(c2cncs2)c2ccc(O)cc21 [Compound 83-6, 6-hydroxy-2,3-di(thiazol-5-yl)-1H-inden-1-one] | – | –
31 | < 20 | < 20 | Cc1ccccc1C1=C(c2c(C)cccc2C)c2ccc(O)cc2C1=O [Compound 84, 3-(2,6-dimethylphenyl)-6-hydroxy-2-(o-tolyl)-1H-inden-1-one] | remarkably excellent disaggregation effect | remarkably excellent disaggregation effect
32 | > 250 | > 250 | Cc1ncsc1C1=C(c2ccc(N3CCN(C)CC3)cc2)C(=O)c2ccccc21 [Compound 85, 2-(4-(4-methylpiperazin-1-yl)phenyl)-3-(4-methylthiazol-5-yl)-1H-inden-1-one] | – | –
